In patent US20080261286A1, “Methods for producing optically active alpha-hydroxy amides” (Daicel Chemical Industries, Ltd., priority 2004, published 2008):
Values belong to the molecule of their own block, whether it stands above or below them.

Tests used:
Type in all cases: biochemical
α-ketoamide reductase [1] = target: T1, α-ketoamide reductase (Saccharomyces cerevisiae, UniProt Q07551); assay: Substrate specificity of α-ketoamide reductase (relative reducing activity); conditions: activity of reducing 2-chlorobenzoyl formamide taken as 100, substrate concentration 1 mM
T1 construct: 500 g of live baker's yeast was purchased from Oriental yeast and the fungal cells were used to purify the enzyme; tissue Oriental Yeast; host or cells: live baker's yeast cells; enzyme purified to a single SDS-PAGE band
T1 sequence (Q07551 1-312): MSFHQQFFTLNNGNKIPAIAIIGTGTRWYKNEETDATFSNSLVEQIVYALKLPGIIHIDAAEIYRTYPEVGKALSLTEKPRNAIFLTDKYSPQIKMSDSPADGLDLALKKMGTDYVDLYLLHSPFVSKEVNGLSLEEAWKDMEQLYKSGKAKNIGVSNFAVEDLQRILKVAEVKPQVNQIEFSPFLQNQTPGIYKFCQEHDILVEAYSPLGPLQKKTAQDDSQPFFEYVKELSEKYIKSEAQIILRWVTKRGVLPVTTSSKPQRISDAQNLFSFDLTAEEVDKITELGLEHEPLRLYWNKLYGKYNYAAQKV
Protocol: (§1) The enzyme is incubated in a reaction solution containing 100 mM potassium phosphate buffer (pH 6.5), 0.2 mM NADPH, and 1 mM 2-chlorobenzoyl formamide at 30° C. Adecrease in NADPH concentration is assessed by the decrease in absorbance at 340 nm. 1 U is defined as the amount of enzyme required to catalyze the decrease of 1 μmol NADPH in one minute.
The enzyme obtained in Example 1 was incubated with any one of various α-ketoamides, α-ketoesters, β-ketoesters, aldehydes, ketones, and others. The reducing activity is represented as a relative activity when the activity of reducing 2-chlorobenzoyl formamide is taken as 100.

α-ketoamide reductase [2] = target: T1, α-ketoamide reductase; assay: Stereoselectivity of α-ketoamide reductase (optical purity of reduction product); conditions: for Optical purity (%): product of reduction, 0.2 U purified enzyme, 10 μmol substrate, 10 μmol NADPH, pH 7.0, 37° C., 6 hours
Protocol: 0.2 U of the purified enzyme and each of various α-ketoamides and α-ketoesters (10 μmol each) were incubated in 0.5 ml of 0.1 M potassium phosphate buffer (pH 7.0) in the presence of 10 μmol NADPH at 37° C. for 6 hours. The resulting α-hydroxy amides and α-hydroxyesters were extracted with ether, and then the optical purity of each compound was determined.
The optical purity was determined by the procedure described below.
The optical purity of 2-chloromandelamide was determined by chiral HPLC method or chiral GC method. The chiral HPLC method comprises chromatography using CHIRALPAK AS-H (DAICEL CHEMICAL INDUSTRIES, LTD.). The elution was carried out using a mixed solution of n-hexane and ethanol (85:15) at a flow rate 1.0 mL/min and a column temperature of 25° C. The elution peak for the compound was detected by UV absorbance at 254 nm. Under these conditions, 2-chloromandelamide was eluted 7.5 minutes (R-isomer) and 10.1 minutes (S-isomer) after the start of elution.
The chiral GC method comprises chromatography using GAMMA DEX 225 (SUPELCO; 30 m×0.25 mm×0.25 μm film thickness) under the following conditions: column temperature, 190° C.; injection temperature, 220° C.; detection temperature 220° C.; carrier gas, He/1.0 kg/cm^2. Under the conditions described above, the S-isomer was eluted 27.0 minutes, and the R-isomer was eluted 29.3 minutes after the start of the elution.
The optical purities of the other α-hydroxyesters were determined by the chiral GC method described below using Chirasil-DEX CB column (Varian; […]×0.25 μm film thickness). GAMMA DEX 225 was used to determine the optical purities of ethyl lactate (injection temperature, 180° C.; column temperature, […]; detection temperature, 180° C.; R-isomer, 6.13 minutes; S-isomer, 6.82 minutes), ethyl 2-hydroxybutyrate (injection temperature, 180° C.; column temperature, 100° C.; detection temperature, 180° C.; R-isomer, 5.88 minutes; S-isomer, 6.32 minutes), ethyl 2-hydroxyvalerate (injection temperature, 180° C.; column temperature, 110° C.; detection temperature, 180° C.; R-isomer, 6.17 minutes; S-isomer, 6.88 minutes), ethyl 2-hydroxy heptanoate (injection temperature, 180° C.; column temperature, 120° C.; detection temperature, 180° C.; R-isomer, 11.20 minutes; S-isomer, 12.00 minutes), and 2-hydroxyisovalerate (injection temperature, 180° C.; column temperature, 90° C.; detection temperature, 180° C.; R-isomer, 10.42 minutes; S-isomer, 10.89 minutes).

[3] = 2-chlorobenzoyl formamide-reducing activity of enzyme preparations; conditions: purified enzyme, 1 mM 2-chlorobenzoyl formamide, 0.2 mM NADPH, pH 6.5, 30° C.
Protocol: as §1
Cells of E. coli DH10B strain containing pSE-YDL1 or pSG-YDL1 were grown on LB medium containing ampicillin. Cells were induced with 0.1 mM IPTG for 4 hours, and then the cells were harvested by centrifugation.
Each sample of cells was suspended in cell lysis buffer (50 mM potassium phosphate buffer (pH 8.0) containing 0.02% 2-mercaptoethanol). The cells were crushed by sonication. Then, the lysates were centrifuged and the resulting supernatants were saved as cell-free extracts.

[4] = pH and temperature dependency and stability of α-ketoamide reductase
Protocol: The pH of the reaction solution was altered using 0.1 M sodium acetate buffer (pH 4.0-5.5), potassiumphosphate buffer (pH 5.5-7.5), Tris-hydrochloride buffer (pH 7.5-9.0), and glycine-potassium hydroxide buffer (pH 9.0-10.5) to assess the pH dependency of the 2-chlorobenzoyl formamide-reducing activity of the enzyme obtained in Example 1. The activity at each pH was determined as a relative activity when the maximal activity was taken as 100. The optimal pH (pH range in which the relative activity is 80% or higher) was 5.5-6.5.
The enzyme obtained in Example 1 was assessed for 2-chlorobenzoyl formamide-reducing activity under standard reaction conditions at various temperatures. The activity at each temperature was determined as a relative activity when the maximal activity was taken as 100. The optimal temperature (temperature range in which the relative activity is 80% or higher) was 35 to 47° C.
The purified enzyme was incubated in 0.1 M sodium acetate buffer (pH 4.0-5.5), 0.1 M potassium phosphate buffer (pH 6.0-7.5), 0.1 M Tris-hydrochloride buffer (pH 8.0-9.0), or 0.1 M glycine-potassium hydroxide buffer (pH 9.5-10.5) at 37° C. for 10 minutes. Then, the enzymatic activity was determined as a relative activity when the activity before the treatment was taken as 100. The stable pH range (pH range in which the residual activity is 80% or higher) was pH 5.5 to 9.5.
The purified enzyme was incubated in 100 mM potassium phosphate buffer (pH 7.0) at 20 to 50° C. for 30 minutes. The temperature range in which the enzyme activity is stable (temperature range in which the residual activity is 80% or higher) falls within the range comprising 40° C. and lower temperatures.

Molecule: CCOC(=O)CC(=O)CCl
Reducing activity (%) (α-ketoamide reductase [1]): 4%

Molecule: NC(=O)C(=O)c1ccccc1
Reducing activity (%) (α-ketoamide reductase [1]): 59%

Molecule: CCOC(=O)C(=O)C(C)C [drawing 30]
Optical purity (%) (α-ketoamide reductase [2]): >99%

Molecule: O=CC(=O)c1ccccc1
Reducing activity (%) (α-ketoamide reductase [1]): 120%

Molecule: CCCC(=O)C(=O)OCC [drawing 8]
Reducing activity (%) (α-ketoamide reductase [1]): 46%

Molecule: O=C(CCl)c1ccccc1
Reducing activity (%) (α-ketoamide reductase [1]): 0%

Molecule: CCOC(=O)C(=O)c1ccccc1 [drawing 31]
Optical purity (%) (α-ketoamide reductase [2]): 97%

Molecule: CCOC(=O)C(Cl)C(C)=O (centres unmarked)
Reducing activity (%) (α-ketoamide reductase [1]): 0%

Molecule: CC(=O)c1ccccc1
Reducing activity (%) (α-ketoamide reductase [1]): 0%

Molecule: CCOC(=O)C(=O)CC [drawing 27]
Optical purity (%) (α-ketoamide reductase [2]): >99%

Molecule: CCOC(=O)C(C)C(C)=O (centres unmarked)
Reducing activity (%) (α-ketoamide reductase [1]): 0%

Molecule: CC(C)C(=O)C(=O)O
Reducing activity (%) (α-ketoamide reductase [1]): 0%

Molecule: COCC(C)=O
Reducing activity (%) (α-ketoamide reductase [1]): 0%

Molecule: CCOC(=O)C(=O)C(C)C [drawing 11]
Reducing activity (%) (α-ketoamide reductase [1]): 71%

Molecule: CCOC(=O)C(=O)CC [drawing 7]
Reducing activity (%) (α-ketoamide reductase [1]): 33%

Molecule: CCOC(=O)CC(=O)c1ccccc1
Reducing activity (%) (α-ketoamide reductase [1]): 0%

Molecule: CCCCCC(=O)C(=O)OCC [drawing 29]
Optical purity (%) (α-ketoamide reductase [2]): >99%

Molecule: CC(=O)COC(C)=O
Reducing activity (%) (α-ketoamide reductase [1]): 0%

Molecule: CCOC(=O)C(C)=O [drawing 26]
Optical purity (%) (α-ketoamide reductase [2]): >99%

Molecule: NC(=O)C(=O)c1cccc(Cl)c1
Reducing activity (%) (α-ketoamide reductase [1]): 143%

B1: α-ketoamide reductase: NADPH-dependent α-ketoamide reductase purified from baker's yeast, encoded by YDL124w (SEQ ID NO: 2) (protein, listed as Saccharomyces cerevisiae)
chain: T1 sequence (Q07551 1-312)
specific activity [3]: about 105 U/mg | specific activity ([3]; listed as purified enzyme): 105 U/mg | temperature range in which the residual activity is 80% or higher ([4]; 100 mM potassium phosphate buffer (pH 7.0), 30 minutes): ≤ 40 °C | optimal pH (pH range in which the relative activity is 80% or higher) ([4]; 2-chlorobenzoyl formamide-reducing activity): 5.5-6.5 | stable pH range (pH range in which the residual activity is 80% or higher) ([4]; 37° C. for 10 minutes): 5.5 to 9.5 | optimal temperature (temperature range in which the relative activity is 80% or higher) ([4]; standard reaction conditions): 35 to 47 °C

Next, values leading:

Reducing activity (%) (α-ketoamide reductase [1]): 50%
Molecule: CCCCCC(=O)C(=O)OCC [drawing 10]

Reducing activity (%) (α-ketoamide reductase [1]): 10%
Molecule: O=C1CCCCC1=O

Reducing activity (%) (α-ketoamide reductase [1]): 32%
Molecule: CCOC(=O)C(=O)c1ccccc1 [drawing 5]

Optical purity (%) (α-ketoamide reductase [2]): 98%
Molecule: CCCC(=O)C(=O)OCC [drawing 28]

Reducing activity (%) (α-ketoamide reductase [1]): 9%
Molecule: CCOC(=O)C(C)=O [drawing 6]

purity of (R)-2-chloromandelamide produced (α-ketoamide reductase [2]; purified enzyme (summary)): ≥ 99% | Reducing activity (%) (α-ketoamide reductase [1]): 100%
Molecule: NC(=O)C(=O)c1ccccc1Cl [2-chlorobenzoyl formamide]

Reducing activity (%) (α-ketoamide reductase [1]): 19%
Molecule: CC1(C)COC(=O)C1=O

Reducing activity (%) (α-ketoamide reductase [1]): 71%
Molecule: NC(=O)C(=O)c1ccc(Cl)cc1

Optical purity (%) (α-ketoamide reductase [2]): >99%
Molecule: NC(=O)C(=O)c1ccccc1Cl [drawing 25]

Reducing activity (%) (α-ketoamide reductase [1]): 0%
Molecule: C=CCC(C(C)=O)C(=O)OCC (centres unmarked)

Reducing activity (%) (α-ketoamide reductase [1]): 49%
Molecule: CCCCC(=O)C(=O)OCC
